Results from patent US7875287B2, “Tc-labeled arylpiperazine derivatives for imaging serotonin receptor” (Korea Atomic Energy Research Institute, priority 2005, dated 2011).

Columns and labels:
[1] = Stability of 99mTc-complex by reversed phase HPLC; format: physicochemical; settings: for approximately 4 hours; reaction mixture, RP-HPLC
Description: Radiochemical purity of ^99mTc-complex (25) was determined by HPLC using a C-18 reverse-phase column as a stationary phase and a water/ACN as a mobile phase, while maintaining a flow rate of 1 ml/min.
The complex is stable (>90%) for approximately 4 hours.

[2] = Paper electrophoresis in 0.1 M phosphate buffer (pH7.4); format: physicochemical; settings: aqueous solution, 0.1 M phosphate buffer pH7.4, 45 min, 400 V (20 V/cm)
Description: Filtered preparation was applied on a paper eluted with 0.1 M phosphate buffer (pH7.4) for 45 min. at a 400 V (20 V/cm).

[3] = Static image scan of rabbits after intravenous injection; format: in vivo, male New Zealand white rabbits; settings: rabbit, image 5 min after injection
Description: Static image of male New Zealand white rabbits scanned at 5 and 10 min.
At an image of 5 min. after the injection, high activity was found in the liver. A trace amount of ^99mTc-8-[3-({2-[4-(2-methoxy-phenyl)-piperazin-1-yl]-ethyl}-pyridin-2-yl-amino)-propyl]-[1,2,5,8]dithiadiazecan-6-one (25) seemed to be remained in the brain.

^99mTc-8-[3-({2-[4-(2-methoxy-phenyl)-piperazin-1-yl]-ethyl}-pyridin-2-yl-amino)-propyl]-[1,2,5,8]dithiadiazecan-6-one [Compound 25]
stability of the complex [1]: > 90%
charge observed in paper electrophoresis [2]: neutral charge
activity in the liver on image [3]: high activity
amount remained in the brain on image [3]: trace amount
